Assay results from ChEMBL document CHEMBL1862790, “Optimisation of fenarimol series for the treatment of Chagas disease”.

Tests used:
Trypanosoma cruzi [1] = test: microbe, parasite or virus in culture; assay type: functional, Tulahuen LacZ, Clone C4
Trypanosoma cruzi [2] = test: microbe, parasite or virus in culture; assay type: functional, organism-based, Tulahuen LacZ, Clone C4
[3] = DNDI: Cytotoxicity against L-6 rat myoblasts from skeletal muscle cells; settings: L6 rat skeletal muscle myoblast cells
[4] = Trypanosoma cruzi, Tulahuen LacZ, Clone C4

Compound	IC90 (Trypanosoma cruzi [1]; [4]) [nM]	IC50 (Trypanosoma cruzi [2]; [4]) [nM]	IC90 (Trypanosoma cruzi [1]) [nM]	IC50 (Trypanosoma cruzi [2]) [nM]	IC50 ([3]; IC50) [nM]	IC50 [3] [nM]
OC(c1ccc(Cl)cc1)(c1cncnc1)c1cccc(F)c1 (stereo unspecified)	1900	840	–	–	> 100000	–
NC(=O)c1ccc(C(O)(c2ccc(C(F)(F)F)cc2)c2cccnc2)cc1 (stereo unspecified)	390	120	–	–	> 100000	–
CCN(CC)C(=O)c1cccc(C(O)(c2ccc(Cl)cc2)c2cccnc2)c1 (stereo unspecified)	280	150	–	–	> 100000	–
CC(C)NC(=O)N1CC(=O)N(c2cc(Cl)cc(Cl)c2)C1=O [IPRODIONE]	> 100000	49000	–	–	–	> 100000
NC(=O)C1CCN(C(c2ccc(C(F)(F)F)cc2)c2cnccn2)CC1 (stereo unspecified)	> 10000	6410	–	–	> 100000	–
CCCCOC(c1ccc(Cl)cc1)c1cccnc1 (stereo unspecified)	296	124	–	–	62600	–
CC(C)(C)OC(=O)NC1CCN(C(c2ccc(C(F)(F)F)cc2)c2cccnc2)CC1 (stereo unspecified)	38	11	–	–	48000	–
CN(C)C(=O)NC(c1ccc(C(F)(F)F)cc1)c1cnccn1 (stereo unspecified)	> 1000	> 1000	–	–	> 100000	–
Nc1ncc(C(O)(c2ccc(Cl)cc2)c2cccnc2)cn1 (stereo unspecified)	910	290	–	–	> 100000	–
CC(C)CC(=O)N1CCC(NC(c2cnccn2)c2ccc(F)cc2F)CC1 (stereo unspecified)	> 1000	550	–	–	> 100000	–
CCCCc1c(C)nc(NCC)[nH]c1=O [ETHIRIMOL]	100000	> 100000	–	–	–	> 100000
O=C(NC1CCCCC1)c1cccc(C(O)(c2ccc(Cl)cc2)c2cccnc2)c1 (stereo unspecified)	210	60	–	–	52300	–
CCS(=O)(=O)N1CCC(NC(c2ccc(C(F)(F)F)cc2)c2cnccn2)CC1 (stereo unspecified)	880	490	–	–	> 100000	–
COc1nc(C)nc(NC(=O)NS(=O)(=O)c2ccccc2Cl)n1 [CHLORSULFURON]	100000	45000	–	–	–	> 100000
Cc1nc(C)c(C(=O)NC2CCN(C(c3ccc(C#N)cc3)c3cccnc3)CC2)s1 (stereo unspecified)	118	59	–	–	> 100000	–
OC(c1ccc(C(F)(F)F)cc1)(c1cncc(F)c1)c1ccc(Cl)cc1F (stereo unspecified)	422	194	–	–	51400	–
Cc1ccncc1C(O)(c1ccc(Cl)cc1)c1cncnc1 (stereo unspecified)	570	253	–	–	> 100000	–
FC(F)(F)c1ccc(C(NCC2CCCCC2)c2cnccn2)cc1 (stereo unspecified)	740	390	–	–	59200	–
CC(C)OCCCNC(=O)c1cccc(C(O)(c2ccc(Cl)cc2)c2cccnc2)c1 (stereo unspecified)	232	97.5	–	–	74800	–
O=C(C1CC1)N1CCN(C(c2ccc(C(F)(F)F)cc2)c2cccnc2)CC1 (stereo unspecified)	183	50.5	–	–	> 100000	–
OC(c1ccc(Cl)cc1)(c1cccnc1)c1cccc(F)c1F (stereo unspecified)	256	107	–	–	–	> 100000
CCCCC(O)(c1ccc(Cl)cc1)c1cccnc1 (stereo unspecified)	103	29	–	–	60900	–
CCCCC(O)(c1ccc(Cl)cc1)c1cncnc1 (stereo unspecified)	1890	500	–	–	> 100000	–
O=C(c1cccc(C(O)(c2ccc(Cl)cc2)c2cccnc2)c1)N1CCOCC1 (stereo unspecified)	120	34	–	–	> 100000	–
O=C(NC(c1ccc(C(F)(F)F)cc1)c1cnccn1)c1ccccc1 (stereo unspecified)	> 1000	> 1000	–	–	> 100000	–
O=C(C1CC1)N1CCN(C(c2ccc(Cl)cc2)c2cncnc2)CC1 (stereo unspecified)	920	500	–	–	> 100000	–
O=C(NC1CC1)c1cccc(C(O)(c2ccc(Cl)cc2)c2cccnc2)c1 (stereo unspecified)	330	180	–	–	72300	–
CC(C)(C)OC(=O)NC1CCN(C(c2cnccn2)c2ccc(F)cc2F)CC1 (stereo unspecified)	650	260	–	–	> 100000	–
CC(C)(C)OC(=O)N1CCN(C(c2cccnc2)c2ccc(C#N)cc2F)CC1 (stereo unspecified)	940	532	–	–	> 100000	–

Second part, led by results:

IC90 (Trypanosoma cruzi [1]; [4]) [nM]	IC50 (Trypanosoma cruzi [2]; [4]) [nM]	IC90 (Trypanosoma cruzi [1]) [nM]	IC50 (Trypanosoma cruzi [2]) [nM]	Compound	IC50 ([3]; IC50) [nM]	IC50 [3] [nM]
640	100	–	–	CS(=O)(=O)NC1CCN(C(c2ccc(Cl)cc2)c2cccnc2)CC1 (stereo unspecified)	> 100000	–
320	183	–	–	Cc1ncoc1C(=O)NC1CCN(C(c2ccc(C#N)cc2)c2cccnc2)CC1 (stereo unspecified)	> 100000	–
93.5	32	–	–	Fc1cnc(N2CCC(NC(c3cccnc3)c3ccc(Cl)cc3F)CC2)nc1 (stereo unspecified)	73300	–
570	290	–	–	Clc1ccc(C(c2cccnc2)n2cccn2)cc1 (stereo unspecified)	> 100000	–
450	180	–	–	Clc1ccc(C(c2cccnc2)N2CCCCC2)cc1 (stereo unspecified)	> 100000	–
553	186	–	–	Cc1ncsc1C(=O)N1CC(NC(c2ccc(C(F)(F)F)cc2)c2cccnc2)C1 (stereo unspecified)	> 100000	–
364	83	–	–	CS(=O)(=O)NC1CCN(C(c2cccnc2)c2ccc(Cl)cc2F)CC1 (stereo unspecified)	> 100000	–
79	24	90	–	N#Cc1ccc(C(c2cccnc2)N2CCC(NC(=O)c3ccccc3)CC2)cc1 (stereo unspecified)	> 100000	–
820	360	–	–	O=C(Cc1ccccc1)N1CCC(NC(c2cnccn2)c2ccc(F)cc2F)CC1 (stereo unspecified)	> 100000	–
118	25	–	–	FC(F)(F)c1ccc(C(NC2CCN(c3cncs3)CC2)c2cccnc2)cc1 (stereo unspecified)	59900	–
402	48	207	61	CC(C)(C)NC(=O)N1CCC(NC(c2ccc(C(F)(F)F)cc2)c2cccnc2)CC1 (stereo unspecified)	> 100000	–
208	81.5	–	–	Cn1ccnc1C(=O)N1CCC(NC(c2ccc(C(F)(F)F)cc2)c2cccnc2)CC1 (stereo unspecified)	> 100000	–
78	24	–	–	CC(C)c1ccc(S(=O)(=O)N2CCN(C(c3ccc(Cl)cc3)c3cncnc3)CC2)cc1 (stereo unspecified)	46100	–
24	8	–	–	Fc1cc(Cl)ccc1C(NC1CCN(c2ccc(OC(F)(F)F)cc2)CC1)c1cccnc1 (stereo unspecified)	48000	–
760	270	–	–	O=C(NC1CCN(C(c2cnccn2)c2ccc(F)cc2F)CC1)c1ccc(Cl)cc1 (stereo unspecified)	66900	–
428	79.5	–	–	CC(C)(C)NC(=O)N1CCC(NC(c2cccnc2)c2ccc(Cl)cc2F)CC1 (stereo unspecified)	> 100000	–
103	50	–	–	Cc1cc(C(=O)NC2CCN(C(c3ccc(C#N)cc3)c3cccnc3)CC2)no1 (stereo unspecified)	> 100000	–
96	42	–	–	COc1cncc(N2CCC(NC(c3ccc(Cl)cc3)c3cccnc3)CC2)c1 (stereo unspecified)	58900	–
460	130	–	–	O=S(=O)(c1ccc(Cl)cc1)N1CCN(C(c2ccc(Cl)cc2)c2cncnc2)CC1 (stereo unspecified)	29000	–
84	25.7	–	–	Clc1ccc(C(NC2CCN(c3ccc(Br)cn3)CC2)c2cccnc2)cc1 (stereo unspecified)	61800	–
76.5	20.5	–	–	N#Cc1ccc(C(c2cccnc2)N2CCC(NC(=O)c3ccc(C(F)(F)F)cc3)CC2)cc1 (stereo unspecified)	65700	–
584	126	–	–	O=C(C1CC1)N1CCC(NC(c2cccnc2)c2ccc(Cl)cc2F)CC1 (stereo unspecified)	> 100000	–
